From ChEMBL document CHEMBL1201862, “PubChem BioAssay data set” (2004)
Activity calls are given as the source filed them.

Legend:
Format in all cases: functional
[1] = molecular target: Melanin-concentrating hormone receptor 1 (Homo sapiens, UniProt Q99705); assay: Late-stage fluorescence-based counterscreen for antagonists of the G-protein coupled receptor 7 (GPR7): cell-based dose response assay to identify antagonists of the melanin-concentrating hormone receptor 1 (MCHR1) Set 5.
[2] = molecular target: Neuropeptides B/W receptor type 1 (Homo sapiens, UniProt P48145); assay: human NPBW1 receptor blockade, IC50 – cell-based, fluorescence, dose response, set 5, late-stage follow-up (AID 588566)
[3] = molecular target: Multidrug resistance protein CDR2 (Candida albicans (strain SC5314 / ATCC MYA-2876) (Yeast), UniProt P78595); assay: inhibition of Nile Red efflux via Candida CDR2 – S. cerevisiae AD1-8u, singleplex, Cherry Pick1 hits, dose response (AID 588604)
[4] = molecular target: Benomyl/methotrexate resistance protein (Candida albicans, UniProt P28873); assay: Candida albicans Mdr1 pump inhibition curves – singleplex, Cherry Pick1 hits, dose response (AID 588608)
Chain of Benomyl/methotrexate resistance protein (P28873 whole entry): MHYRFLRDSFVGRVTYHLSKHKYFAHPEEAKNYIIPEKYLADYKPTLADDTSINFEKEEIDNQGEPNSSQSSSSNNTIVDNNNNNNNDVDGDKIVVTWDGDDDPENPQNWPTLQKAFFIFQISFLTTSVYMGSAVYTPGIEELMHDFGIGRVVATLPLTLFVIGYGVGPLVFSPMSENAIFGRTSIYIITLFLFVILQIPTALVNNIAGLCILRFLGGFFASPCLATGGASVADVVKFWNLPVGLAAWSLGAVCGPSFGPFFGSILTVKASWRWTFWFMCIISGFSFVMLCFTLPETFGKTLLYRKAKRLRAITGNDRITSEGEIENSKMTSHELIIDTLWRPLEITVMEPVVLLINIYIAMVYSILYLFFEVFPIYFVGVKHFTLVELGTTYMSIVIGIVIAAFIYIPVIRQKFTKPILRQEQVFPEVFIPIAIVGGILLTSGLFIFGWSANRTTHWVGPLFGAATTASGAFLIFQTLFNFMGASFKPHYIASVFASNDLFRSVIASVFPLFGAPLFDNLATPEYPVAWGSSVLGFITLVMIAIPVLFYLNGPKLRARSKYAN

Chain of Melanin-concentrating hormone receptor 1 (Q99705 whole entry): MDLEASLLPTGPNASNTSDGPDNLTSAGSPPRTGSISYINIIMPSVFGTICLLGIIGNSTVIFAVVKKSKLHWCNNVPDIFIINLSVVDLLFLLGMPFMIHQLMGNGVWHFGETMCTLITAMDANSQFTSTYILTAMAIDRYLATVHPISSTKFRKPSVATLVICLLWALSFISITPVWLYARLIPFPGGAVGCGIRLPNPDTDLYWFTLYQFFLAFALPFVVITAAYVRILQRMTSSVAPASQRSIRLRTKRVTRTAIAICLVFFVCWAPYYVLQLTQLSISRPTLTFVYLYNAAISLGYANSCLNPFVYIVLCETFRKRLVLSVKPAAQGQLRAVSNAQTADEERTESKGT
Chain of Neuropeptides B/W receptor type 1 (P48145 whole entry): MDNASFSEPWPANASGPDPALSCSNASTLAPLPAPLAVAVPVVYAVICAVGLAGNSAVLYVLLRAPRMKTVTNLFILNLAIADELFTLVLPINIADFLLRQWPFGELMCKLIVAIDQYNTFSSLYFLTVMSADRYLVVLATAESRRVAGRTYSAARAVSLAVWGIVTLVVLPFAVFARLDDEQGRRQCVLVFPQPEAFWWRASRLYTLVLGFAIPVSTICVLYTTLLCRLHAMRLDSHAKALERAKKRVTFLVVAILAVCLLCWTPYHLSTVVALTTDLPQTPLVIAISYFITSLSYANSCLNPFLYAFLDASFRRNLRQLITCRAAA
Chain of Multidrug resistance protein CDR2 (P78595 whole entry): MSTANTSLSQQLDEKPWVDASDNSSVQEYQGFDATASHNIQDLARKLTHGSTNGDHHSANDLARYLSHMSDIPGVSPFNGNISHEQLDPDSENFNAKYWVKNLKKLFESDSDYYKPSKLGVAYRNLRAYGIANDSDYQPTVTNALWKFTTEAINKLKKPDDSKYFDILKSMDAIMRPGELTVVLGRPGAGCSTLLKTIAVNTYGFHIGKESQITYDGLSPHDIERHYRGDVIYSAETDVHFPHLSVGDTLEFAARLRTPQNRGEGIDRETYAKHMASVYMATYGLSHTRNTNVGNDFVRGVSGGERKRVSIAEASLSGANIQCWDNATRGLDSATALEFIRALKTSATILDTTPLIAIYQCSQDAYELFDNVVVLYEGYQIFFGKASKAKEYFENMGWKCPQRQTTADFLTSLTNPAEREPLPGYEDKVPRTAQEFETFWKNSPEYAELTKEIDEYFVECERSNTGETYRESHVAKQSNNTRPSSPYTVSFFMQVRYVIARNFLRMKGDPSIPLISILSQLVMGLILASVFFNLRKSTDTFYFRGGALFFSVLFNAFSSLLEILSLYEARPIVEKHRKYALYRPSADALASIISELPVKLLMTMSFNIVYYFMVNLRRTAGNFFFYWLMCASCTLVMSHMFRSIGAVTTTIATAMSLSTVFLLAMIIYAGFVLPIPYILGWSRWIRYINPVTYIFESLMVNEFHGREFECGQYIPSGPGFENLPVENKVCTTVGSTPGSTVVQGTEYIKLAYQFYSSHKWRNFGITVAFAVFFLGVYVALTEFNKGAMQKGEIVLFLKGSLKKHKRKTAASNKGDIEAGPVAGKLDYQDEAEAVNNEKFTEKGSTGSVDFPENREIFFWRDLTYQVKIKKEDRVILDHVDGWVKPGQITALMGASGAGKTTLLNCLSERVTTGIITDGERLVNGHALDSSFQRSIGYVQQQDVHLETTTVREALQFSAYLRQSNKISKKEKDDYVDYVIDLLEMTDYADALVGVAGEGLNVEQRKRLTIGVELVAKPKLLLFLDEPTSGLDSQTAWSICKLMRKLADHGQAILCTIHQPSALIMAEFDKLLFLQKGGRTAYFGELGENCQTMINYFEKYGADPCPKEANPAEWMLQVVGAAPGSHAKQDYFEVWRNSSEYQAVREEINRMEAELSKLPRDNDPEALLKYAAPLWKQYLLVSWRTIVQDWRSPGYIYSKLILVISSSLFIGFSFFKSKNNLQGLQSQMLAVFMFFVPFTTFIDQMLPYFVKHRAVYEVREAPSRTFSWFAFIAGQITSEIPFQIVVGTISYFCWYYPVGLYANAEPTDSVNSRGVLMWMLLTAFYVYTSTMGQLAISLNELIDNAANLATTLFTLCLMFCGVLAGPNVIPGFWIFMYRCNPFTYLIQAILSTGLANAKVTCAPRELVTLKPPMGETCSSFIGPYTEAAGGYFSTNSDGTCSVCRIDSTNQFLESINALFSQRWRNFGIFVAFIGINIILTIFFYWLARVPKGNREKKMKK

Row | SMILES | IC50 [1] | IC50 [2] | EC50 [3] | EC50 [4]
1 | CCOc1ccc(Oc2c(Cl)c(C)nn(Cc3cccc4ccccc34)c2=O)cc1 | 14.8 µM (inactive) | 1.88 µM (active) | – | –
2 | CCN(CC)c1ccc(/C=C/c2cc(-c3ccccc3)c3ccccc3n2)cc1 | – | – | 16.1 µM (active) | 3.32 µM (active)
